Measured values reported in the NIST ThermoML archive (doi:10.1016/j.jct.2004.07.006).
Numbers after ± are expanded uncertainties. Blank lines part the entries; values can stand above or below the compound they belong to.

Assay: mn = molality of the nth substance listed, in mol/kg
Conditions: 298.15 K, 101.33 kPa, Liquid

- viscosity (m1 = 0.4993): 0.9561 ± 0.031 mPa·s
- viscosity (m1 = 0.7501): 0.9914 ± 0.032 mPa·s
- viscosity (m1 = 1): 1.028 ± 0.033 mPa·s
- viscosity (m1 = 1.499): 1.106 ± 0.035 mPa·s
- viscosity (m1 = 1.5): 1.106 ± 0.035 mPa·s
- viscosity (m1 = 2): 1.189 ± 0.037 mPa·s
SMILES: NCC(=O)O [2-aminoacetic acid] + O

- viscosity (m1 = 0.1002): 0.9179 ± 0.03 mPa·s
- viscosity (m1 = 0.4992): 1.017 ± 0.032 mPa·s
- viscosity (m1 = 0.7503): 1.08 ± 0.034 mPa·s
- viscosity (m1 = 0.9992): 1.152 ± 0.036 mPa·s
SMILES: C[C@H](N)C(=O)O [(S)-2-aminopropanoic acid] + O

- viscosity (m1 = 0.0995): 0.9265 ± 0.03 mPa·s
- viscosity (m1 = 0.0998): 0.9265 ± 0.03 mPa·s
- viscosity (m1 = 0.5004): 1.062 ± 0.034 mPa·s
- viscosity (m1 = 0.7502): 1.145 ± 0.036 mPa·s
SMILES: NCC(=O)NCC(=O)O [glycylglycine] + O
